Measurements published in paper PMC12040169 (PLOS Biology, 2025).

test: in vitro; details: human, hela cells, % viability

SMILES	viability at 28.5 h, 10 µM
COc1ccc(C(C)C)cc1-c1cncc(NCCc2ccccn2)n1 [CBK065325]	94.9%
O=C1CC[C@@H](NCc2ccccc2O)[C@H](c2cc(F)cc(F)c2)N1 [CBK283126]	107%
Cc1ccccc1-c1ccc(C(=O)N(C)CCN(C)C)c(N(C)C)n1 [CBK106090]	96%
CN(C)CC1CCCCN1S(=O)(=O)c1ccc(C(C)(C)C)cc1 (stereo not shown) [CBK051347]	108%
OCCN(CCO)c1cncc(-c2cccs2)n1 [CBK065766]	95.4%
COc1cc(OC)cc(C(=O)N(CCC#N)Cc2ccco2)c1 [CBK305133]	96.3%
CS(=O)(=O)Nc1nnc(SCC(=O)Nc2cccc([N+](=O)[O-])c2)s1 [CBK045536]	102%
O=C(Cn1cnc2ccc(F)cc2c1=O)N1Cc2ccccc2C(c2ccccc2)C1 (stereo not shown) [CBK296767]	95.1%
NS(=O)(=O)c1ccc(NC(=S)NNC(=O)c2ccc(Br)o2)cc1 [CBK266972]	95.8%
COc1ccc2[nH]cc([C@@H]3CCC[C@H](NC(=O)C4CCCO4)C3)c2c1 (stereo partly shown) [CBK284699]	105%
Cc1cc2c(s1)c1cnn(CC(=O)N3CCCCC3)c(=O)c1n2C [CBK284187]	82.3%
CC(=O)c1ccc(NC(=O)N[C@H]2CO[C@H]3[C@@H]2OC[C@H]3OCC(N)=O)cc1 [CBK289460]	117%
O=C(/C=C/c1ccc(Br)cc1)N1CCN(Cc2ccc3c(c2)OCO3)CC1 [CBK074434]	91.5%
CC(C)N1CCCC(CNC(=O)C2Cc3cc(Cl)ccc3O2)C1 (stereo not shown) [CBK282686]	92.8%
O=C(CCCN1C(=O)c2cccc3cccc(c23)C1=O)N1CCN(Cc2ccc3c(c2)OCO3)CC1 [CBK074370]	72.6%
Cc1ccc(Oc2ccc(NC(=O)Cn3cnnc3C#N)cc2)cc1 [CBK295612]	106%
COc1ccccc1C(=O)N1CCC(C(=O)N(C)C(c2ccccc2)c2ncccc2C)CC1 (stereo not shown) [CBK060531]	75.4%
CN(Cc1ccc2c(c1)OCO2)C(=O)c1cnn2c(-c3ccccc3)ccnc12 [CBK298276]	95%
CCCOc1ccc(-c2cn(CC(=O)NN)cn2)cc1 [CBK261790]	106%
N#C/C(=C\c1ccc(Oc2ccc(C(F)(F)F)cc2[N+](=O)[O-])cc1)c1nc2ccccc2[nH]1 [CBK263878]	92.4%
COCCn1c(CO)nnc1[C@H]1C[C@@H](NC(=O)c2ccc(O)c(F)c2)C1 [CBK307132]	74.1%
Cc1cc(Cl)ccc1CNC(=O)C1=CC(=O)CC(C)(C)O1 [CBK153282]	97.5%

SMILES	viability at 28.5 h, 10 µM
COc1ccccc1-c1ccc(CC2(C(=O)NCc3ccc(F)cc3)CCOCC2)cc1 [CBK286518]	100%
CCn1cc(CC(=O)NCCn2ccc(C)n2)c2ccccc21 [CBK282670]	96.7%
Cc1ccc(C(=O)N2Cc3ccccc3C2)cn1 [CBK200318]	94.9%
O=C(Nc1ccccc1O)c1ccc2c(c1)C(=O)N(c1ccc(Sc3ccc([N+](=O)[O-])cc3)cc1)C2=O [CBK262092]	86.8%
Cc1ccccc1-n1ccn(S(=O)(=O)C(C)C)c1=O [CBK106566]	89.7%
CCc1nn(C)cc1CN1CCOC(c2nc(C(C)(C)C)cs2)C1 (stereo not shown) [CBK304513]	104%
COCCOCC(=O)N1CC(=O)N(c2ccccc2C#N)CC1C (stereo not shown) [CBK307258]	91.7%
CN(C)CCCC(=O)Nc1cccc2[nH]ccc12 [CBK159660]	99.9%
COCC1(C(=O)N(C)Cc2nnc(-c3ccccc3)o2)CCC1 [CBK306987]	109%
O=C1CC(c2cc(Br)ccc2F)c2scc(-c3ccccc3F)c2N1 (stereo not shown) [CBK294440]	86.4%
CNC(=O)c1cccc(NC(=O)c2cc(Br)cnc2NCC2CC2)c1 [CBK076380]	95.5%
O=c1ncccn1[C@@H]1O[C@H](CO)[C@H](O)C1O (stereo partly shown) [CBK201195]	94%
CS(=O)(=O)c1ccc(C(=O)Nc2nc(-c3ccccc3)cs2)cc1 [CBK287716]	102%
O=C(Nc1ccc(N2CCNCC2)c2ccccc12)c1ccccc1 [CBK028412T]	92.8%
CCn1cc(C2CN(S(=O)(=O)c3cccc(C)c3Cl)CCO2)cn1 (stereo not shown) [CBK304226]	91.3%
Cn1cccc1C(=O)N1CCC(OCc2cnc(-c3ccc(S(C)(=O)=O)cc3)cn2)CC1 [CBK172007]	106%
Nc1nnc(C(F)(F)F)s1 [CBK038099]	119%
CCN(CCO)c1ccc(Nc2cc(-c3cc(C(F)(F)F)cc(C(F)(F)F)c3)ncn2)cc1 [CBK090994]	106%
COc1cc(C)c(-c2nc(C)nc(C)c2C)c(C)c1 [CBK306711]	90.5%
c1ccc2c(-c3cn4ccnc4c(NC4CCOCC4)n3)cccc2c1 [CBK038047]	89.9%
CC(CCN(C)CCN(C)C)c1ccccc1 (stereo not shown) [CBK261871]	87.6%
CC(=O)NC(C)(COc1nonc1C)COc1nonc1C [CBK265955]	90.3%

SMILES	viability at 28.5 h, 10 µM
COc1ccc(C2(C(=O)N[C@H]3CC[C@H](O)CC3)CC2)cc1 [CBK149840]	111%
COc1ccc(Nc2nc(-c3cccnc3)cnc2N)cc1 [CBK063952]	90.3%
CC1CC(=O)C2C=C(c3ccc(Br)cc3)NN=C2C1 (stereo not shown) [CBK021352]	91.8%
CCc1nc(N)nc(N2CCC3(CCC(CNC(C)=O)O3)CC2)c1C (stereo not shown) [CBK307168]	100%
CCN(CC)CCOc1c(C)cc(Cl)cc1C [CBK262219]	97%
O=C(COc1ccccc1[N+](=O)[O-])Nc1cc(-c2nc3cc(Cl)ccc3o2)ccc1Cl [CBK268639]	116%
Cn1nccc1C(=O)N1CCCC(c2cc3ncccc3[nH]2)C1 (stereo not shown) [CBK283413]	104%
O=[N+]([O-])c1ccc(CN2CCN(c3nccnc3OCc3cccnc3)CC2)cc1 [CBK083135T]	106%
Cc1cc(Cl)c(S(=O)(=O)Nc2ccc3c(c2)OCCO3)cc1OCC(=O)NC1CCCCC1 [CBK266786]	95.5%
COC(=O)c1c(NC(=O)C(Cc2ccccc2)N2C(=O)c3ccccc3C2=O)sc2c1CCC2 (stereo not shown) [CBK265744]	96.1%
Clc1nccnc1N1CCCC1 [CBK083594]	101%
CN1CCN(c2cc(N3CCN(C)CC3)c([N+](=O)[O-])cc2C2Nc3ccc4ccccc4c3C3=C2C(=O)CC(C)(C)C3)CC1 (stereo not shown) [CBK262381]	93.9%
O=C(CSc1nnc2c(n1)[nH]c1ccccc12)Nc1ccccc1[N+](=O)[O-] [CBK263195]	100%
COc1ccc(C2=Nc3ccc(Br)cc3C(c3ccccc3)N2CC(=O)NN)cc1 (stereo not shown) [CBK263141]	95.8%
CCOc1ccc(CN(C)C(=O)Nc2cc(C)on2)cc1 [CBK306216]	101%
O=C(Nc1cc(Oc2ccc(Cl)cc2)cc([N+](=O)[O-])c1)c1cnn2c(C(F)F)cc(C3CC3)nc12 [CBK268925]	105%
NC(=O)CCN1CCC(Cc2ccccc2)CC1 [CBK138317]	117%
Cc1ccc(C(=O)O)cc1S(=O)(=O)N(C)CCO [CBK267167]	94.1%
Cc1cc(C)cc(Nc2c(-c3ccc(C(=O)O)cc3)nc3cnccn23)c1 [CBK287166]	73.3%
CN1C(=O)NC(c2ccc(Br)cc2)C2=C1CN(c1cccc(C(=O)O)c1)C2=O (stereo not shown) [CBK286729]	84.3%
O=C(O)c1ccccc1C(=O)Nc1ccc(Oc2cccc3ccccc23)cc1 [CBK265131]	84.9%
Cc1[nH]c2ccccc2c1C(=O)CSc1nnc(N)s1 [CBK266328]	102%

SMILES	viability at 28.5 h, 10 µM
Cc1nnc(CSc2ncc(-c3ccc(Cl)cc3)n2Cc2ccccc2)o1 [CBK297154]	103%
C=CCNc1nccnc1-c1ccc(CO)cc1 [CBK036870]	91.4%
Cc1c(-c2csc(CC#N)n2)sc2ccccc12 [CBK020828]	65.6%
CN(C)CCN(C)C(=O)C1CCN(c2cncc(-c3ccc(O)cc3)n2)CC1 [CBK126928T]	88%
NC1=NNC2=C(c3cccc(Cl)c3)NNN12 [CBK093661]	87.3%
Cc1nc(NS(=O)(=O)c2cc(Br)c(Cl)s2)sc1C(=O)O [CBK045560]	96%
CC1(C)[C@H](Cc2cc(CO)on2)C[C@@H]1NC(=O)C1CCCCC1 [CBK289235]	93.1%
C/C=C/c1ccc(OCCNC2CCCC2)c(OC)c1 [CBK266399G]	93.9%
CCC1(C)CC(=O)c2cc(NC(=O)N3CCc4n[nH]cc4C3)ccc2O1 (stereo not shown) [CBK306846]	90.3%
NCCNC(=O)c1cc2cc(F)ccc2[nH]1 [CBK107345]	95.8%
O=C(NC1CC2CCC(C1)N2Cc1ccccc1)c1cccc(Cl)c1 (stereo not shown) [CBK116291]	95.4%
COC(=O)C1(Cc2ccccc2)CN(C(=O)OC(C)(C)C)CCC1=O (stereo not shown) [CBK003486]	93.2%
O=C(c1cnc2ccccc2n1)N1CCc2ccccc21 [CBK200267]	117%
COC(=O)c1cn([C@H]2CO[C@H]3[C@@H]2OC[C@H]3O)nn1 [CBK289491]	87.5%
CC(C)c1ccc(/C=C2\CCCc3c2nc2ccccc2c3C(=O)O)cc1 [CBK299777]	91.2%
CN(C)c1cccc2c(S(=O)(=O)n3ccn(-c4cccc(C(F)(F)F)c4)c3=O)cccc12 [CBK106578]	109%
COc1ccc([C@H]2CN(Cc3ccccc3)[C@@H]3CCN(C(=O)c4ccccc4F)C[C@H]23)cc1 [CBK285542]	91.1%
COc1ccc(-c2ccc(CCC(=O)O)n2CCc2ccccc2)cc1 [CBK265929]	115%
CCOC(=O)C(NC(=O)c1cn[nH]c1)c1cccc(C)c1C (stereo not shown) [CBK304175]	92.8%
CCOC(=O)C1CCCN(C(=O)CCn2c(=O)oc3cc(Cl)ccc32)C1 (stereo not shown) [CBK304516]	93.8%
COc1ccccc1N1C(=O)c2ccc(C(=O)Nc3cc([N+](=O)[O-])ccc3O)cc2C1=O [CBK264272]	95.3%
Cc1cc(C)nc(N/C(=N\C(=S)Nc2cccc(Cl)c2C)NCc2cccnc2)n1 [CBK267254]	93.5%
